Data published in PubChem BioAssay (NCI).
Several values for one entry are separate records, joined by “and”; a condition that tells them apart may be missing. Identical values can stand only once.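 In this assay, cells in 96-well plates receive the compound at five concentrations for 48 hours. Endpoints are linearly interpolated between the surrounding concentrations. GI50: concentration for 50% inhibition of growth. TGI: concentration producing complete growth inhibition.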

What was measured:
Assay in all cases: NCI-60 cell line screen, 48 h
HCC-2998 colon = tested on: HCC-2998 colon
OVCAR-3 ovarian = tested on: OVCAR-3 ovarian
OVCAR-4 ovarian = tested on: OVCAR-4 ovarian
OVCAR-8 ovarian = tested on: OVCAR-8 ovarian
SF-268 CNS = tested on: SF-268 CNS
SNB-75 CNS = tested on: SNB-75 CNS
U251 CNS = tested on: U251 CNS
UACC-257 melanoma = tested on: UACC-257 melanoma
UO-31 renal = tested on: UO-31 renal
CCRF-CEM leukemia = tested on: CCRF-CEM leukemia

Row | SMILES | TGI (HCC-2998 colon) [µM] | TGI (OVCAR-3 ovarian) | TGI (OVCAR-4 ovarian) [µM] | TGI (OVCAR-8 ovarian) [µM] | TGI (SF-268 CNS) [µM] | TGI (SNB-75 CNS) [µM] | TGI (U251 CNS) [µM] | TGI (UACC-257 melanoma) [µM] | TGI (UO-31 renal) [µM] | TGI (CCRF-CEM leukemia) [µM] | GI50 (OVCAR-3 ovarian) | GI50 (OVCAR-4 ovarian) | GI50 (OVCAR-8 ovarian) | GI50 (SF-268 CNS) | GI50 (U251 CNS) | GI50 (UO-31 renal) [µM] | GI50 (CCRF-CEM leukemia) | GI50 (HCC-2998 colon) | GI50 (SNB-75 CNS) | GI50 (UACC-257 melanoma) [µM]
1 | Cc1nc([N+](=O)[O-])cn1-c1nc2ccccn2c1[N+](=O)[O-] | > 100 | > 100 µM | > 100 | > 100 | > 100 | 63.7 | > 100 | > 100 | > 100 | – | – | – | – | – | – | – | – | – | – | –
2 | O=C(O)c1cc(-c2ccc3cc4c(cc3c2)OCO4)nc2ccccc12 | – | > 100 µM | > 100 | > 100 | > 100 | > 100 | > 100 | 35.4 | 28.1 | 35.4 | – | – | – | – | – | – | – | – | – | –
3 | CCN(CC)CCCNc1nccc2c(C)c3c(cc12)c1cnccc1n3C | 0.256 | 0.735 µM | 0.131 | 1.25 | 1.69 | 1.74 | 1.77 | – | 2.32 | 0.415 | – | – | – | – | – | – | – | – | – | –
4 | CC(C)(C)C1=CC(=C(P(=O)(O)O)P(=O)(O)O)C=C(C(C)(C)C)C1=O | > 50 | > 50 µM | > 50 | > 50 | > 50 | > 50 | – | > 50 | > 50 | > 50 | – | – | – | – | – | – | – | – | – | –
5 | CC1=N/C(=C/c2ccc3c(c2)OCO3)C(=O)O1 | – | > 100 µM | > 100 | > 100 | > 100 | > 100 | > 100 | > 100 | > 100 | > 100 | – | – | – | – | – | – | – | – | – | –
6 | CC(=O)Nc1ccc(/C=C/C(=O)c2sc(-c3cccnc3)nc2C)cc1 | > 100 | > 100 µM | – | > 100 | > 100 | > 100 | > 100 | > 100 | > 100 | > 100 | – | – | – | – | – | – | – | – | – | –
7 | CCOC(=O)c1cc(C(=O)c2ccc(OC)cc2)n2ccc(/C=C/c3cc[n+](CC(=O)c4ccc(OC)cc4)cc3)cc12 | – | 3 µM | 2.94 | 8.32 | 4.52 | – | 4.57 | – | > 100 | – | 1.52 µM | 1.26 µM | 2.02 µM | 2.09 µM | 1.68 µM | > 100 | – | – | – | –
8 | CC[C@H](C)[C@H](NC(=O)[C@H]1CCCCN1C)C(=O)N(C)[C@H](C[C@@H](OC(C)=O)c1cccc(C(=O)N[C@@H](Cc2ccccc2)C[C@H](C)C(=O)OC)n1)C(C)C | > 25 | 0.00308 µM and < 0.0025 µM | > 25 | > 25 | > 25 | > 25 | > 25 | – | > 25 | > 25 | 0.000398 µM and < 0.0025 µM | 0.0277 µM and 0.0138 µM | 0.00797 µM and 0.0056 µM | 0.00498 µM and 0.00661 µM | 0.00408 µM and 0.00381 µM | – | 0.00495 µM and 0.0025 µM | 0.00362 µM and 0.0025 µM | 0.00366 µM and 0.00479 µM | –
9 | CCOC(=O)Cc1c(C)c2cc(C(=O)c3ccccc3)c(O)cc2oc1=O | > 100 | 53.8 µM | > 100 | > 100 | 84.9 | 74.7 | 74.2 | 80.1 | – | > 100 | – | – | – | – | – | – | – | – | – | –
10 | CN(Cc1ccccc1)Cn1ccnc1 | – | > 100 µM | > 100 | > 100 | > 100 | > 100 | > 100 | 47.4 | > 100 | > 71.2 | – | – | – | – | – | – | – | – | – | –
11 | O=C(CN(/C=C/C(=O)C(F)(F)F)c1ccc(Cl)cc1)c1ccc(Cl)cc1 | 35 | 17.3 µM | 32.4 | 26.9 | 29.4 | – | 20.5 | 20.8 | 24.8 | 24.4 | 4.52 µM | 12 µM | 10.8 µM | 11.5 µM | 7.53 µM | 12 | 5.11 µM | 15.7 µM | – | 7.45
12 | COc1cc(/C=C2\C(=O)N(C(=O)Cc3ccccc3)N=C2C)cc(OC)c1OC | > 100 | > 100 µM | > 100 | > 100 | > 100 | > 100 | – | > 100 | > 100 | > 100 | – | – | – | – | – | – | – | – | – | –
13 | Cc1ccc(O)c(NC(=O)c2cccc(Nc3ccnc(C(F)(F)F)c3)c2)c1 | 23.2 | 41.6 µM | 31.2 | 19.7 | 39 | 25.3 | 37.6 | – | 18.1 | 39.2 | 15.5 µM | 2.97 µM | 5.52 µM | 13.3 µM | 15.6 µM | 3.03 | 1.82 µM | 10.5 µM | 11.4 µM | –
14 | COC1CCC(OS(C)(=O)=O)C(CO)O1 (stereo not given) | > 100 | > 100 µM | – | > 100 | – | > 100 | > 100 | > 100 | > 100 | > 100 | – | – | – | – | – | – | – | – | – | –
15 | O=C(/C=C\c1ccccc1O)c1ccc(O)cc1O | > 100 | > 100 µM | > 100 | > 100 | > 100 | – | > 100 | > 100 | > 100 | > 100 | – | – | – | – | – | – | – | – | – | –
16 | CC1(C)OC2C(CCP(=O)(O)O)OC(c3nc(C(N)=O)cs3)C2O1 (stereo not given) | > 100 | – | > 100 | > 100 | > 100 | > 100 | > 100 | > 100 | > 100 | > 100 | – | – | – | – | – | – | – | – | – | –
17 | CNC(=O)c1c(C)oc2cc(Oc3ncnc4cc(OC)c(OC)cc34)ccc12 | > 100 | > 100 µM | > 100 | > 100 | > 100 | > 100 | > 100 | > 100 | – | > 100 | > 100 µM | > 100 µM | > 100 µM | > 100 µM | 5.51 µM | – | > 100 µM | > 100 µM | 2.35 µM | > 100
18 | C/C(=N\N=C(N)N)C(CN1CCCCC1)C(c1ccccc1)c1c(O)c2ccccc2oc1=O (stereo not given) | > 100 | > 100 µM | > 100 | > 100 | > 100 | > 100 | – | > 100 | – | > 100 | – | – | – | – | – | – | – | – | – | –
19 | Cc1cnc2ccc(C)c([N+](=O)[O-])c2c1NCCCN(C)C | > 100 | > 100 µM | > 100 | > 100 | > 100 | – | > 100 | > 100 | > 100 | > 100 | – | – | – | – | – | – | – | – | – | –
20 | O=C(O)CCNCC(=O)O | – | > 100 µM | – | > 100 | > 100 | > 100 | > 100 | > 100 | > 100 | > 100 | – | – | – | – | – | – | – | – | – | –
